According to patent publication US8552065B2, “Biarylamide derivative and compositions containing the derivative as an active ingredient” (Catholic University Industry Academy Cooperation Foundation, priority 2010, dated 2013):

What was measured:
[1] = test system: Melan-a cells, that is, mouse melanocytes; assay: Melanin production inhibition by biarylamide derivatives in melan-a cells (Example 2-2); format: cell-based; settings: 30 mM derivative, 10 μl per day for 3 days, final concentration 300 μM, absorbance 400 nm
Protocol: Melan-a cells, that is, mouse melanocytes, were inoculated onto a 24-well culture plate (10^5 cells), and cultured in RPMI1640 medium including fetal bovine serum (FBS) 10% and 200 nM of phorbol 12-myristate 13-acetate (TPA) for 24 hours. Then, in each well, 990 μl of RPMI1640 medium including FBS 10% and 200 nM TPA was treated with 30 mM of the inventive biarylamide derivative (10 μl per day for 3 days) (final concentration 300). The last day of treatment, the cells were washed with Phosphate buffered saline (PBS) three times, lysed with 1 ml of 1M sodium hydroxide (NaOH) solution, and measured using ELISA Leader at absorbance of 400 nm.

[2] = test system: Melan-a cells, that is, mouse melanocytes; assay: Melanin production inhibition by A3/B5 in melan-a cells, with cell viability (Example 3); format: cell-based; settings: A3/B5 treatment per day for 3 days, final concentration 1, 10, and 25 (unit not given), FIG. 1A
Protocol: (§1) In order to examine the effect of A3/B5 on melanin inhibition, the degree of melanin production was analyzed using melan-a cells, that is, mouse melanocytes and human normal melanocytes. Melanocytes were inoculated onto a 24-well culture plate (10^5 cells) and cultured in RPMI1640 medium including fetal bovine serum (FBS) 10% and 200 nM of phorbol 12-myristate 13-acetate (TPA) for 24 hours. Then, in each well, 990 μl of RPMI1640 medium including FBS 10% and 200 nM TPA was treated with
(§2) 100, 1000, and 2500 of A3/B5 (10 μl per day for 3 days) (final concentration 1, 10, and 25). The last day of treatment, the cells were washed with Phosphate buffered saline (PBS) three times, lysed with 1 ml of 1M sodium hydroxide (NaOH) solution, and measured using ELISA Leader at absorbance of 400 nm. Additionally, in order to determine if the inhibition of melanin production is caused by apoptosis, cell viability was examined under the same condition as described above. For this, The last day of treatment, the cells were washed with phosphate buffered saline (PBS) three times, and the cells in each well were stained with 200 μl of Crystal Violet (0.1%, EtOH 10%, PBS 89.9%) for 5 minutes, washed with phosphate buffer, lysed in 1 ml of ethanol solution, and measured at absorbance of 590 nm. Further, this experiment was performed for human normal melanocytes in the same manner.

[3] = test system: human normal melanocytes; assay: Melanin production inhibition by A3/B5 in human normal melanocytes (Example 3); format: cell-based; settings: A3/B5 treatment per day for 3 days, final concentration 1, 10, and 25 (unit not given), FIG. 1B
Protocol: as §1, §2

[4] = test system: TRP-2 (Tyrosinase related protein-2, Dopachrom tautomerase); assay: TRP-2 expression in melan-a cells by western blotting (Example 4); format: cell-based, mouse; settings: 50 uM
Protocol: In order to examine the effects of A3/B5 on TRP-2 expression, mouse melanocytes (melan-a) were cultured in RPMI1640 medium including fetal bovine serum (FBS) 10% and 200 nM of phorbol 12-myristate 13-acetate (TPA) for 24 hours, and treated with A3/B5 at a concentration of 50 uM (per day for 3 days). In order to determine the expression level of TRP-2 over 3 days, each test group was lysed in RIPA buffer solution containing 2 mM EDTA, 137 mM NaCl, 20 mM Tris-HCl (pH 8.0), 1 mM sodium vanadate, 10 mM NaF, 1 mM PMSF (phenylmethanesulfonyl fluoride), 1% NP-40, 10% glycerol and a protease inhibitor cocktail, and protein was separated by SDS-PAGE electrophoresis using 10% acrylamide gel. This was transferred to a nylon membrane, and TRP-2 protein was analyzed by anti TRP-2 antibody (santacuz, US) and anti-Rabbit IgG horse Radish Peroxidase (HRP) conjugation antibody (1;10000, zymed) as a secondary antibody. This was detected by Chemiluminescence reagent kit (ECL, Amersham, US) and then imaged using RAS 3000 Imaging system (FUJI film, Japan) as an image analyzer. Further, in a case where the cells were treated with A3B5 once on the first day of 3 consecutive days, the expression level of TRP-2 over 3 days was also analyzed in the same manner as described above.

[5] = test system: A375 human melanoma cell lines; assay: A375 melanoma cell growth inhibition, BrdU cell proliferation assay (Example 5); format: cell-based; settings: respective concentrations, 48 hours, absorbance 450 nm, FIG. 3
Protocol: A375 cells were inoculated onto a 96 well plate (3×10^3 cells), and cultured in DMEM containing fetal bovine serum (FBS) 10% for 16 hours, and then treated with A3/B5 at respective concentrations, and cultured for 48 hours. Then, by using BrdU cell proliferation assay kit (Roche, Germany), the degree of cell growth inhibition by A3/B5 was examined.

[6] = test system: B16F10 mouse melanoma cell; assay: B16F10 melanoma cell proliferation in hairless mouse model (Example 6); format: in vivo; settings: hairless mice; 100 μl of 1 mM A3/B5 injected into the cell region for 5 days; sectioned on 6th day; FIG. 4
Protocol: In order to examine the effect of A3/B5 on the inhibition of melanoma cell proliferation, into the back of 5 hairless mice, at both sides of subcutaneous tissues, 5×10^5 B16F10 cells (B16F10 mouse melanoma cell) were injected. Then, 48 hours later, into the region injected with the cells, 100 μl of A3/B5 diluted with phosphate buffer solution to a concentration of 1 mM, and 100 μl of phosphate buffer solution as a control, were injected for 5 days, respectively. On the 6th day, the injected cell region was sectioned and its size and weight were analyzed.

| Compound | Reduction rate of melanin(%) [1] [%] | also measured |
| --- | --- | --- |
| Cc1ccc(C(=O)Nc2cc(C)cc(C)c2)cc1 [A3/B3, N-(3,5-dimethylphenyl)-4-methylbenzamide] | 35.8 |  |
| COc1ccc(C(=O)Nc2cccc(C)c2)cc1 [A1/B6, 4-methoxy-N-m-tolylbenzamide] | 24.3 |  |
| COc1ccc(OC)c(NC(=O)c2ccccc2C)c1 [A8/B1, N-(2,5-Dimethoxyphenyl)-2-methylbenzamide] | 45.5 |  |
| COC(=O)c1ccc(NC(=O)c2cccc(C)c2)cc1 [A14/B2, Methyl 4-(3-methylbenzamido)benzoate] | 30.6 |  |
| Cc1cccc(NC(=O)c2ccc(C#N)cc2)c1 [A1/B7, 4-cyano-N-m-tolylbenzamide] | 34.2 |  |
| CCc1ccc(C(=O)Nc2ccccc2C(=O)OC)cc1 [A12/B4, methyl 2-(4-ethylbenzamido)benzoate] | 9.4 |  |
| CC(=O)c1ccc(NC(=O)c2ccc(C)cc2)cc1 [A10/B3, N-(4-acetylphenyl)-4-methylbenzamide] | 10.4 |  |
| COC(=O)c1ccccc1NC(=O)c1ccc(C)cc1 [A12/B3, methyl 2-(4-methylbenzamido)benzoate] | 9.4 |  |
| COc1ccccc1NC(=O)c1ccccc1C [A4/B1, N-(2-Methoxyphenyl)-2-methylbenzamide] | 17.7 |  |
| CCCCOc1ccc(NC(=O)c2ccccc2C)cc1 [A11/B1, N-(4-Butoxyphenyl)-2-methylbenzamide] | 8.9 |  |
| COc1cccc(C(=O)Nc2cc(C)cc(C)c2)c1 [A3/B5, N-(3,5-dimethylphenyl)-3-methoxybenzamide] | 48.7 | reduction in melanin production content of melanocytes with respect to cell viability, as compared to a non-treated group [2]: about 40%; reduction in melanin production content of melanocytes with respect to cell viability, as compared to a non-treated group [3]: about 20%; expression level of TRP-2 protein as compared to non-treated group ([4]; treated daily for 3 days, FIG. 2A): significant reduction; expression level of TRP-2 protein as compared to non-treated group ([4]; treated only once on the first day of 3 consecutive days, FIG. 2B): significant reduction; inhibition on growth of A375 melanoma cells [5]: inhibition on growth of A375 melanoma cells was increased; size of injected B16F10 cell region versus phosphate buffer control [6]: smaller; weight of injected B16F10 cell region versus phosphate buffer control [6]: smaller |
| CCc1ccc(C(=O)Nc2cccc(C)c2)cc1 [A1/B4, 4-ethyl-N-m-tolylbenzamide] | 23.3 |  |
| Cc1ccc(C(=O)Nc2cccc(C)c2)cc1 [A1/B3, 4-methyl-N-m-tolylbenzamide] | 32.6 |  |
| Cc1cc(C)cc(NC(=O)c2ccc(C#N)cc2)c1 [A3/B7, 4-cyano-N-(3,5-dimethylphenyl)benzamide] | 50.6 |  |
| Cc1ccc(NC(=O)c2ccc(C)cc2)cc1 [A2/B3, 4-methyl-N-p-tolylbenzamide] | 8.6 |  |
| COC(=O)c1ccccc1NC(=O)c1ccc(OC)cc1 [A12/B6, methyl 2-(4-methoxybenzamido)benzoate] | 39.0 |  |
| CCc1ccc(C(=O)Nc2cc(C)cc(C)c2)cc1 [A3/B4, N-(3,5-dimethylphenyl)-4-ethylbenzamide] | 36.5 |  |
